Results taken from US20010036952A1, “Small molecule pipecolic acid derivative hair growth compositions and uses” (GPI NIL Holdings, Inc., priority 1997, published 2001).

Experiments:
[1] = target: FKBP12 (Homo sapiens, UniProt P62942); test: Ki test procedure: inhibition of peptidyl-prolyl isomerase (rotamase) activity, chymotrypsin-coupled assay; format: biochemical; conditions: FKBP rotamase, substrate N-succinyl-Ala-Ala-Pro-Phe-p-nitroanilide; read-out: Ki (apparent Ki, rotamase inhibition)
Description: The inhibition of the prolyl peptidyl cis-trans isomerase activity of FKBP may be measured as an indicator of this affinity.
Inhibition of the peptidyl-prolyl isomerase (rotamase) activity of the compounds used in the inventive methods and pharmaceutical compositions can be evaluated by known methods described in the literature (Harding et al., Nature, 1989, 341:758-760; Holt et al. J. Am. Chem. Soc., 115:9923-9938).
The cis-trans isomerization of an alanine-proline bond in a model substrate, N-succinyl-Ala—Ala—Pro—Phe- p-nitroanilide, is monitored spectrophotometrically in a chymotrypsin-coupled assay, which releases para-nitroanilide from the trans form of the substrate. The inhibition of this reaction caused by the addition of different concentrations of inhibitor is determined, and the data is analyzed as a change in first-order rate constant as a function of inhibitor concentration to yield the apparent Ki values.
In a plastic cuvette are added […] of ice cold assay buffer (25 mM HEPES, pH 7.8, 100 mM NaCl), […] of FKBP (2.5 mM in 10 mM Tris-Cl pH 7.5, 100 mM NaCl, 1 mM dithiothreitol), […] of chymotrypsin (50 mg/ml in 1 mM HCl) and […] of test compound at various concentrations in dimethyl sulfoxide. The reaction is initiated by the addition of 5 mL of substrate (succinyl-Ala—Phe—Pro—Phe-para-nitroanilide, 5 mg/mL in 2.35 mM LiCl in trifluoroethanol).
The absorbance at 390 nm versus time is monitored for 90 seconds using a spectrophotometer and the rate constants are determined from the absorbance versus time data files.

[2] = tested on: hair growth; conditions: topical, but not oral, application; cited from earlier work

Sequence of FKBP12 (P62942 whole entry, species assumed): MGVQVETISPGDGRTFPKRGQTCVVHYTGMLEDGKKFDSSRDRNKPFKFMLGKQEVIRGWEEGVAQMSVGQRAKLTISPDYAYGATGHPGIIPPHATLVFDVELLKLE

Structure (SMILES)	Ki [1] [µM]	stimulation of hair growth (in words) [2]
O=C(C(=O)N1CCCCC1C(=O)OCc1ccccc1)c1ccccc1 (centres unmarked) [Compound 10]	1.5	
O=C(C(=O)N1CCCCC1C(=O)OCCCCc1ccccc1)c1ccccc1 (centres unmarked) [Compound 13]	0.35	
O=C(C(=O)N1CCCCC1C(=O)OCCc1ccccc1)c1ccccc1 (centres unmarked) [Compound 14]	1.1	
O=C(C(=O)N1CCCCC1C(=O)OCCCCC1CCCCC1)c1ccccc1 (centres unmarked) [Compound 15]	0.4	
COC(=O)C(=O)N1CCCCC1C(=O)OCc1ccccc1 (centres unmarked) [Compound 16]	80	
O=C(C(=O)N1CCCCC1C(=O)OCc1ccccc1)c1ccco1 (centres unmarked) [Compound 20]	3	
COc1cc(C(=O)C(=O)N2CCCCC2C(=O)OCCCCc2ccccc2)cc(OC)c1OC (centres unmarked) [Compound 23]	0.019	
C=CC[C@@H]1/C=C(\C)C[C@H](C)C[C@H](OC)[C@H]2O[C@@](O)(C(=O)C(=O)N3CCCC[C@H]3C(=O)O[C@H](/C(C)=C/[C@@H]3CC[C@@H](O)[C@H](OC)C3)[C@H](C)[C@@H](O)CC1=O)[C@H](C)C[C@@H]2OC [FK506]		stimulates hair growth in a dose-dependent manner
